# Reference: article PMC11801715, “Activating PKC-ε induces HIV expression with improved tolerability” (PLOS Pathogens, 2025)
# Experiments:
# [1] = test system: cellular p24 in CD4+ T cells; assay: Ex vivo HIV-Flow assay in CD4+ T cells; assay type: cell-based, HIV-1; conditions: 500 nM in HIV-Flow, 72 hours
# Method: Isolated CD4^+ T cells from ART-suppressed people with HIV were cultured in RPMI medium containing 10% FBS, 100 nM efavirenz, and 1 μM tenofovir alafenamide at 2 million cells per mL. These cells were subsequently stimulated with DMSO (vehicle control), 500 nM PKC agonist C-233, or 162 nM PMA and 1 µg/mL ionomycin. The cells were cultured at 37°C, 5% CO2 for 3 days. After 3 days, the cells were washed with PBS, stained with Live/Dead Fixable Aqua for 25 minutes at 4°C, followed by 2% FBS in PBS wash. Cells were then fixed and permeabilized in FoxP3 Fix/Perm buffer (E-Bioscience, catalog 005523) for 45 minutes at 4°C, followed by FoxP3 Perm buffer wash. The samples were stained with 2 different anti-p24 antibodies, (KC57-PE/ Beckman Coulter, 6604667, and a28B7-APC Medimabs, MM-0289-APC) diluted 1:1000 in FoxP3 Perm buffer for 45 minutes at 4°C, washed with FoxP3 Perm buffer, and resuspended in PBS. The samples were run on the BD LSR Fortessa II flow cytometer. The data were analyzed using FlowJo version 10.7.1.
# Supplementary file ppat.1012874.s012.png: S9 Fig C-233 induces HIV activation in CD4^+ T cells from ART-suppressed people with HIV. […]
# [2] = test system: plasma cytokines/chemokines; assay: Cytokine/chemokine analysis in plasma; assay type: in vivo, rhesus macaque; conditions: 4 hours post dose
# Excerpt: For plasma cytokine analysis (S1 Table), whole blood was collected into K2EDTA tubes from C-232A and vehicle dosed rhesus macaques (prebleed and various post-dose time points) and plasma was isolated and stored at −80^ºC. Cytokine/chemokine analysis in plasma samples was accomplished using a nonhuman primate-specific 37 Plex ProcartaPlex immunoassay system (Thermo Fisher Scientific) according to the manufacturer’s instructions. Samples were then read on a Luminex 200 (Luminex) platform and analyzed using Bio-plex Manager software (Bio-Rad).
# PKC-β2 = PKC-β2 (Homo sapiens, UniProt P05771); assay: PKC isoform translocation in A549-tGFP cells; assay type: cell-based; set-up: host or cells: A549; conditions: 60 minutes
# Method: (§1) Using these findings we embarked on new designs for DAG-lactones with additional substituents from the ester moiety in combination with a few olefin substituents. A description of this effort is reported elsewhere.
# (§2) Cellular translocation of PKC isoforms upon activation was determined in 8 A549 cell lines, each expressing a single PKC isoform fused to tGFP (PhenoVista Biosciences). Cells were plated in 384-well plates (80 μL/well) at 10^5 cells/mL in RPMI with 10% FBS and rested overnight. PKC agonist(s) were serially diluted at 1:3 steps in DMSO and added to the cells. After 60 minutes in an incubator at 37 °C, 5% CO2, cells were stained with Hoechst-33342 and fixed with 2% paraformaldehyde for 30 minutes at 4 °C. Cells were then stained with wheat germ agglutinin conjugated to AlexaFluor647 (WGA-647) for 10 minutes at 4 °C, washed to remove excess dye and imaged with Cellomics Array Scan (Thermo Fisher) at room temperature (RT). Images were analyzed using Cellomics automated image analysis algorithm. Plasma membrane translocation was quantified using the ratio between the average fluorescence in the areas at the cell edge defined by WGA-647 and the cytoplasm region.
# PKC-β1 = PKC-β1 (Homo sapiens, UniProt P05771); assay: PKC isoform translocation in A549-tGFP cells; assay type: cell-based; set-up: host or cells: A549; conditions: 60 minutes
# Method: as §1, §2
# PKC-γ = PKC-γ (Homo sapiens, UniProt P05129); assay: PKC isoform translocation in A549-tGFP cells; assay type: cell-based; set-up: host or cells: A549; conditions: 60 minutes
# Method: as §1, §2
# Sequence of PKC-β2 (P05771 1-673 isoform P05771-2): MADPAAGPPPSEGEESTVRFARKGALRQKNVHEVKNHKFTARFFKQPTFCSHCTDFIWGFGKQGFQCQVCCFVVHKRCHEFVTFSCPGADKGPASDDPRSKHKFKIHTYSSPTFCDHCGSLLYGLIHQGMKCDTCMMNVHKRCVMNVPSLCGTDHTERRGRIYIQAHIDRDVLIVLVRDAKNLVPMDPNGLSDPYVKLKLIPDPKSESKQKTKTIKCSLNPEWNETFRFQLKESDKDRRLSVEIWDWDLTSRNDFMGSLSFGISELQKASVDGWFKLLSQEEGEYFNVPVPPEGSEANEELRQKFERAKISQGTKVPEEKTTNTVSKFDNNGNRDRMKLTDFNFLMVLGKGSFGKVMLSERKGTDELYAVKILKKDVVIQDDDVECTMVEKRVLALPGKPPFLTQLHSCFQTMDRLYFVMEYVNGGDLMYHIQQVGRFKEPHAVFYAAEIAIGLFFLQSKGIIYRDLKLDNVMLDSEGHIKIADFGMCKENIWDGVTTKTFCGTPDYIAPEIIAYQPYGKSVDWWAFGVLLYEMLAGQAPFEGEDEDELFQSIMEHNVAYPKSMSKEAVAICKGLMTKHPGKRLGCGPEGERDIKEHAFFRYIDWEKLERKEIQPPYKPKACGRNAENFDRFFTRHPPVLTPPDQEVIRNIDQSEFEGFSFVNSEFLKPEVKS
# Sequence of PKC-β1 (P05771 whole entry, canonical isoform): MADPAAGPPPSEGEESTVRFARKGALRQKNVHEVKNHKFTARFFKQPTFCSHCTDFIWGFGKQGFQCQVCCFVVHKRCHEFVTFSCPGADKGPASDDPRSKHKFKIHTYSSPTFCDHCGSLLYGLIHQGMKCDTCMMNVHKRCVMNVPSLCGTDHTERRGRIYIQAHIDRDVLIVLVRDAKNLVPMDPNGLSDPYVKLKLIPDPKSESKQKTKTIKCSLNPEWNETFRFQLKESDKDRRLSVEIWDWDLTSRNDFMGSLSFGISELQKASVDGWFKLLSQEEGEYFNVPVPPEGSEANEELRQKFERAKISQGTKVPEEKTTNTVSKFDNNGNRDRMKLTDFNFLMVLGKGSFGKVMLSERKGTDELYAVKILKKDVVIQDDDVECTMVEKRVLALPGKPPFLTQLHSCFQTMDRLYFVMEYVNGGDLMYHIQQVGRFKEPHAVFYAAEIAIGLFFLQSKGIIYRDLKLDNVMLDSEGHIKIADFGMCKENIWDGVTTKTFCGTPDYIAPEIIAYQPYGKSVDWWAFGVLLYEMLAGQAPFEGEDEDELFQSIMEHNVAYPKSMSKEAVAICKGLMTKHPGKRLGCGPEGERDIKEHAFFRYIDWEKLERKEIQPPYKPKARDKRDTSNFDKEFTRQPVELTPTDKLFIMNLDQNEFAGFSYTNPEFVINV
smiles,measurement,setting,value
Cc1ccc(C#Cc2ccc(C(=O)OCC3(CO)Cc4c(-c5ccccc5)ccnc4O3)cc2)cc1 (stereo not shown) [C-233],HIV protein production (supernatant p24 and cellular p24 by HIV-Flow),[1],activated production of viral protein
Cc1ccc(C#Cc2ccc3oc(CC(C)(C)C(=O)OCC4(CO)CC(=CCC(CC(C)C)CC(C)C)C(=O)O4)cc3c2)cc1 (stereo not shown) [C-232A],I-TAC in plasma,[2]; 0.03 mg/kg,88 pg/mL
same,IFN-α in plasma,[2]; 0.03 mg/kg,90 pg/mL
same,IFN-γ in plasma,[2]; 0.03 mg/kg,43 pg/mL
same,IL-1RA in plasma,[2]; 0.03 mg/kg,169 pg/mL
same,IL-1β in plasma,[2]; 0.03 mg/kg,45 pg/mL
same,IL-6 in plasma,[2]; 0.03 mg/kg,43 pg/mL
same,IL-8 in plasma,[2]; 0.03 mg/kg,275 pg/mL
same,IL-10 in plasma,[2]; 0.03 mg/kg,42 pg/mL
same,IL-18 in plasma,[2]; 0.03 mg/kg,114 pg/mL
same,MCP-1 in plasma,[2]; 0.03 mg/kg,1900 pg/mL
same,MIG in plasma,[2]; 0.03 mg/kg,55 pg/mL
same,MIP-1α in plasma,[2]; 0.03 mg/kg,208 pg/mL
same,MIP-1β in plasma,[2]; 0.03 mg/kg,131 pg/mL
same,TNF-α in plasma,[2]; 0.03 mg/kg,56 pg/mL
same,VEGF-A in plasma,[2]; 0.03 mg/kg,107 pg/mL
same,I-TAC in plasma,[2]; 0.1 mg/kg,427 pg/mL
same,IFN-α in plasma,[2]; 0.1 mg/kg,143 pg/mL
same,IFN-γ in plasma,[2]; 0.1 mg/kg,75 pg/mL
same,IL-1RA in plasma,[2]; 0.1 mg/kg,775 pg/mL
same,IL-1β in plasma,[2]; 0.1 mg/kg,70 pg/mL
same,IL-6 in plasma,[2]; 0.1 mg/kg,126 pg/mL
same,IL-8 in plasma,[2]; 0.1 mg/kg,2531 pg/mL
same,IL-10 in plasma,[2]; 0.1 mg/kg,80 pg/mL
same,IL-18 in plasma,[2]; 0.1 mg/kg,193 pg/mL
same,MCP-1 in plasma,[2]; 0.1 mg/kg,3250 pg/mL
same,MIG in plasma,[2]; 0.1 mg/kg,64 pg/mL
same,MIP-1α in plasma,[2]; 0.1 mg/kg,160 pg/mL
same,MIP-1β in plasma,[2]; 0.1 mg/kg,428 pg/mL
same,TNF-α in plasma,[2]; 0.1 mg/kg,39 pg/mL
same,VEGF-A in plasma,[2]; 0.1 mg/kg,161 pg/mL
same,I-TAC in plasma,[2]; 0.3 mg/kg,365 pg/mL
same,IFN-α in plasma,[2]; 0.3 mg/kg,112 pg/mL
same,IFN-γ in plasma,[2]; 0.3 mg/kg,53 pg/mL
same,IL-1RA in plasma,[2]; 0.3 mg/kg,2265 pg/mL
same,IL-1β in plasma,[2]; 0.3 mg/kg,59 pg/mL
same,IL-6 in plasma,[2]; 0.3 mg/kg,76 pg/mL
same,IL-8 in plasma,[2]; 0.3 mg/kg,375 pg/mL
same,IL-10 in plasma,[2]; 0.3 mg/kg,54 pg/mL
same,IL-18 in plasma,[2]; 0.3 mg/kg,145 pg/mL
same,MCP-1 in plasma,[2]; 0.3 mg/kg,6117 pg/mL
same,MIG in plasma,[2]; 0.3 mg/kg,55 pg/mL
same,MIP-1α in plasma,[2]; 0.3 mg/kg,187 pg/mL
same,MIP-1β in plasma,[2]; 0.3 mg/kg,707 pg/mL
same,TNF-α in plasma,[2]; 0.3 mg/kg,19 pg/mL
same,VEGF-A in plasma,[2]; 0.3 mg/kg,81 pg/mL
same,I-TAC in plasma,[2]; 1 mg/kg,5602 pg/mL
same,IFN-α in plasma,[2]; 1 mg/kg,187 pg/mL
same,IFN-γ in plasma,[2]; 1 mg/kg,200 pg/mL
same,IL-1RA in plasma,[2]; 1 mg/kg,4471 pg/mL
same,IL-1β in plasma,[2]; 1 mg/kg,343 pg/mL
same,IL-6 in plasma,[2]; 1 mg/kg,3872 pg/mL
same,IL-8 in plasma,[2]; 1 mg/kg,6153 pg/mL
same,IL-10 in plasma,[2]; 1 mg/kg,82 pg/mL
same,IL-18 in plasma,[2]; 1 mg/kg,351 pg/mL
same,MCP-1 in plasma,[2]; 1 mg/kg,"13,620 pg/mL"
same,MIG in plasma,[2]; 1 mg/kg,658 pg/mL
same,MIP-1α in plasma,[2]; 1 mg/kg,1111 pg/mL
same,MIP-1β in plasma,[2]; 1 mg/kg,3913 pg/mL
same,TNF-α in plasma,[2]; 1 mg/kg,28 pg/mL
same,VEGF-A in plasma,[2]; 1 mg/kg,330 pg/mL
same,EC50,PKC-β2,2.26 µM
same,EC50,PKC-β1,3.28 µM
same,EC50,PKC-γ,11.5 µM
